Laboratory results reported in patent publication US9994901B2, “Pro-inflammatory mediators in diagnosis and treatment of chronic obstructive pulmonary disease” (The Regents of the University of Colorado, priority 2012, dated 2018).

Columns and labels:
human PB monocytes = assay: Human PB monocytes cultured on fibronectin 48 hrs, conditioned media ELISA (FIG. 3); format: cell-based; conditions: human PB monocytes (n=6) on fibronectin 48 hrs, PTA2 added; ELISA of conditioned media
Description: FIG. 3. […] Fibronectin (FN) induces pro-inflammatory mediator in human PB monocytes. Monocytes (n=6) were cultured on plastic (ctl) or fibronectin (FN) for 48 hrs. Pinane thromboxane A2 (PTA2), a thromboxane receptor antagonist, was added to some FN cultures. Conditioned media was analyzed for indicated mediators by ELISA. *P<0.05 Students two tailed t-test compared to plastic.
In particular, murine macrophages promote inflammation via a signaling pathway that depends on thromboxane receptor signaling and that is repressed by ARHGEF1. Monocytes from a healthy individual similarly promote inflammation, as indicated by MMP-9, TNFα and MCP-1 production, and this is inhibited by a (commercially available research grade) thromboxane receptor antagonist (FIG. 3).
To facilitate this analysis, we used an ELISA-based platform developed by Meso Scale Discovery (MSD), Gaithersburg, Md. USA (www.mesoscale.com) that allows a multiplex format for the analysis of pro-inflammatory cytokines, chemokines, and matrix metalloproteases. This platform relies on proprietary detection and patterned arrays in a 96-well format and that has an extremely large dynamic range enabling detection of these pro-inflammatory mediators from both biological samples (BAL fluid, serum, etc.) and tissue culture supernatant. An MSD plate reader (Sector Imager 2400) was used.

COPD patient monocytes = assay: COPD patient peripheral blood monocytes cultured on fibronectin, IL-8 production (FIG. 15); format: cell-based, human
Description: FIG. 15. […] Graphically depicted are the results from treating human monocytes cultured on fibronectin with two different TP antagonist. […] Some fibronectin cultured cells were treated with the thromboxane receptor antagonist Pinane Thromboxane (PTA2). For PTA2 treatment, the concentration utilized is 7.5 μM.
Some fibronectin cultured cells were treated with the thromboxane receptor antagonist Pinane Thromboxane (PTA2). For PTA2 treatment, the concentration used was 7.5 μM.

Arhgef1-/- animals = assay: Arhgef1-/- animals, inhalation of PTA2, BAL supernatant ELISA (FIG. 11); format: in vivo, mouse; conditions: ELISA 24 hr after a 1 hr inhalation exposure, vs vehicle
Description: FIG. 11. Panels A and B graphically depict the measurement of BAL pro-inflammatory mediators by ELISA in Arhgef1 deficient animals treated by inhalation of PTA2 or vehicle. […] Pro-inflammatory mediators were measured in BAL supernatant 24 hr after a 1 hr inhalation exposure to either vehicle (black bars on left sides, n=16) or PTA2 (grey bars on right sides, n=3).
(§1) Treatment with a thromboxane receptor antagonist decreases the expression of pro-inflammatory mediators.

Arhgef1-/- mice = Arhgef1-/- mice treated with TP antagonist, RT-PCR of BAL cells and lung tissue (FIGS. 9, 10); format: in vivo, mouse; conditions: time course, single dose
Description: Arhgef1 is an intracellular signaling molecule which has been shown specifically to modulate signaling from Gα12/13 coupled receptors. […] We have identified that thromboxane receptor signaling is required for fibronectin induced MMP-9 expression in wild type and Arhgef1-deficient cells. Treatment of Arhgef1-deficient mice with a thromboxane receptor antagonist results in a consistent and reproducible reduction in MMP-9 expression and activity in the pulmonary compartment. […] Importantly treatment with a thromboxane receptor antagonist decreased expression of all of these mediators in the Arhgef1-deficient lungs. These findings were unexpected.
as §1

human monocytes = assay: Human monocytes cultured on fibronectin, IL-6 by ELISA (FIG. 12); format: cell-based; conditions: FN+20 mM aspirin vs FN
Description: Experiments summarized in the top of FIG. 12 show culture of human monocytes on fibronectin (FN) induces several pro-inflammatory mediators as measured by ELISA.

## CCCCC[C@@H](O)/C=C/[C@H]1C[C@H]2C[C@@H]([C@@H]1C/C=C\CCCC(=O)O)C2(C)C (relative stereo) [PTA2, (1S-(1alpha,2beta(Z),3alpha(1E,3S*),5alpha))-7-(3-(3-Hydroxy-1-octenyl)-6,6-dimethylbicyclo(3.1.1)hept-2-yl)-5-heptenoic acid]
Human PB monocytes
  FN induced MCP-1: dependent on TP signaling
  FN induced TNF-: dependent on TP signaling
COPD patient monocytes; monocytes from 3 COPD patients on fibronectin, PTA2 7.5 μM
  IL-8 production: reduce IL-8 production
Arhgef1-/- animals
  production of several pro-inflammatory mediators in BAL supernatant: reduces production of several pro-inflammatory mediators

## Cc1c(CC(C)(C)C(=O)O)n(Cc2ccc(Cl)cc2)c2ccc(F)cc12 [L655, 1-[(4-Chlorophenyl)methyl]-5-fluoro-α,α,3-trimethyl-1H-indole-2-propanoic acid]
Arhgef1-/- mice
  expression of several pro-inflammatory mediators, RT-PCR of BAL cells: decreases expression of several pro-inflammatory mediators
  expression of several pro-inflammatory mediators, RT-PCR of lung tissue: decreases expression of several pro-inflammatory mediators

## CC1=C(C)C(=O)C(C(CCCCCC(=O)O)c2ccccc2)=C(C)C1=O (centres unmarked) [Seratrodast, 7-phenyl-7-(2,4,5-trimethyl-3,6-dioxocyclohexa-1,4-dien-1-yl)heptanoic acid]
COPD patient monocytes; monocytes from a COPD patient on fibronectin, Seratrodast 0.448, 2.24, 11.2 μM
  IL-8 production: reduce IL-8 production

## CC(=O)Oc1ccccc1C(=O)O [aspirin]
Human monocytes
  FN induced IL-6 production: reduced
